ChEMBL document CHEMBL4665689, “Picrorhizones A-H, Polyprenylated Benzoylphloroglucinols from the Stem Bark of Garcinia picrorhiza” (J Nat Prod, 2020)

Key:
Format in all cases: functional, cell-based
MCF7 = test: Cytotoxicity activity against human MCF7 cells assessed as reduction in cell viability after 72 hrs by MTT assay; conditions: MCF7, 72 h
KB = test: Cytotoxicity activity against human KB cells assessed as reduction in cell viability after 72 hrs by MTT assay
HeLa S3 = test: Cytotoxicity activity against human HeLa S3 cells assessed as reduction in cell viability after 72 hrs by MTT assay; conditions: HeLa S3, 72 h
HepG2 = test: Cytotoxicity activity against human HepG2 cells assessed as reduction in cell viability after 72 hrs by MTT assay; conditions: HepG2, 72 h
HT-29 = test: Cytotoxicity activity against human HT-29 cells assessed as reduction in cell viability after 72 hrs by MTT assay; conditions: HT-29, 72 h

Compound `CC(C)=CC[C@@H]1C[C@]23C[C@@H](CC=C(C)C)C(C)(C)[C@](CC=C(C)C)(C(=O)C(C(=O)c4ccc(O)c(O)c4)=C2OC1(C)C)C3=O` has an IC50 (MCF7) of 7.2 µM, an IC50 (KB) of 5.3 µM and an IC50 (HeLa S3) greater than 10 µM. The IC50 (HepG2) was greater than 10 µM and the IC50 (HT-29) was greater than 10 µM.

`C=C(C)[C@H]1C[C@@H](C[C@@]23C[C@@H](/C=C/C(C)C)C(C)(C)[C@@](CC=C(C)C)(C2=O)c2oc4cc(O)c(O)cc4c(=O)c2C3=O)C1(C)C` was tested, and the IC50 (MCF7) was greater than 10 µM, the IC50 (KB) was 5.2 µM and the IC50 (HeLa S3) was 6.2 µM. The IC50 (HepG2) was greater than 10 µM and the IC50 (HT-29) was greater than 10 µM.

`C=C(C)[C@H]1C[C@@H](C[C@]23C[C@@H](/C=C/C(C)C)C(C)(C)[C@](C/C=C(\C)CO)(C(=O)C(C(=O)c4ccc(O)c(O)c4)=C2O)C3=O)C1(C)C` was tested, and the IC50 (KB) was greater than 10 µM and the IC50 (HeLa S3) was 8 µM.

`C=C(C)[C@H]1C[C@@H](C[C@]23C[C@@H](/C=C/C(C)C)C(C)(C)[C@](CC=C(C)C)(C(=O)C(C(=O)c4ccc(O)c(O)c4)=C2O)C3=O)C1(C)C` was tested, and the IC50 (MCF7) was greater than 10 µM, the IC50 (KB) was 7 µM and the IC50 (HeLa S3) was 7.2 µM. It also gave an IC50 (HepG2) greater than 10 µM and an IC50 (HT-29) greater than 10 µM.

`CC(=O)[C@H]1C[C@@H](C[C@]23C[C@@H](/C=C/C(C)C)C(C)(C)[C@](CC=C(C)C)(C(=O)C(C(=O)c4ccc(O)c(O)c4)=C2O)C3=O)C1(C)C` was tested, and the IC50 (MCF7) was greater than 10 µM, the IC50 (KB) was 7.4 µM and the IC50 (HeLa S3) was greater than 10 µM. It also gave an IC50 (HepG2) greater than 10 µM and an IC50 (HT-29) greater than 10 µM.

Compound `C=C(C)[C@H]1C[C@@H](C[C@]23C[C@@H](/C=C/C(C)C)C(C)(C)[C@@]4(C[C@@H](C(C)(C)O)OC4=C(C(=O)c4ccc(O)c(O)c4)C2=O)C3=O)C1(C)C` has an IC50 (MCF7) of 9.3 µM, an IC50 (KB) of 5.9 µM and an IC50 (HeLa S3) of 6 µM. It also gave an IC50 (HepG2) of 9.4 µM and an IC50 (HT-29) greater than 10 µM.

For `C=C(C)[C@H]1C[C@@H](C[C@]23C[C@@H](/C=C/C(C)C)C(C)(C)[C@](CC=C(C)C)(C(=O)C(C(=O)c4ccccc4)=C2O)C3=O)C1(C)C`, the IC50 (MCF7) was greater than 10 µM, the IC50 (KB) was 9.9 µM and the IC50 (HeLa S3) was greater than 10 µM. For the same compound, the IC50 (HepG2) was greater than 10 µM and the IC50 (HT-29) was greater than 10 µM.

Work on `COc1cccc2c1C(=O)c1c(O)c3c(c(O)c1C2=O)C[C@@](O)(C(=O)CO)C[C@@H]3O[C@H]1C[C@H](N)[C@H](O)[C@H](C)O1` [DOXORUBICIN] yielded an IC50 (KB) of 0.02 µM, an IC50 (HeLa S3) of 0.15 µM and an IC50 (HepG2) of 1 µM. For the same compound, the IC50 (HT-29) was 0.59 µM.
